Activity calls are given as the source filed them. The rule behind the calls is not given here.
Tests used:
[1] = Toxicity in male db/db mouse model assessed as effect on kidney weight at 2.5 to 10 mg/kg/day, ip administered for 4 weeks; type: organism-based; conditions: in vivo, 672 h, dose 2.5-10 mg/kg/day
[2] = target: T1, Peroxisome proliferator-activated receptor gamma (Homo sapiens) (UniProt P37231); assay: Covalent binding affinity to recombinant PPAR-gamma ligand binding domain (unknown origin) at Cys285 residue at 0.4 uM incubated for 30 mins by rhodamine-maleimide staining based SDS-PAGE analysis; conditions: filed as partial agonist
T1 sequence (whole entry): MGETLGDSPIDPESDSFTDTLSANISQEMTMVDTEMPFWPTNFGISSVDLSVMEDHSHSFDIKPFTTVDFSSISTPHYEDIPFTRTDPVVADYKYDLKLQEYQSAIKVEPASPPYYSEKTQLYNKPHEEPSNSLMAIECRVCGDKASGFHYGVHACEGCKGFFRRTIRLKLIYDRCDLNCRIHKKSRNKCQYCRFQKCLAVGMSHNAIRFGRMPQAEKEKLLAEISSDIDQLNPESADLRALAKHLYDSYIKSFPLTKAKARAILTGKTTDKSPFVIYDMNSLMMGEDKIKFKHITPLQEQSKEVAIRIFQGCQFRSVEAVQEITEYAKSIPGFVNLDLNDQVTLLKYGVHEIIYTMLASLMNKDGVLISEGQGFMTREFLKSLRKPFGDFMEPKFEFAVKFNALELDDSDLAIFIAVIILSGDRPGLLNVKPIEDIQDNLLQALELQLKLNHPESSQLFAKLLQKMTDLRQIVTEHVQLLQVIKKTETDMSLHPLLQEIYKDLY

[3] = Toxicity in male db/db mouse model assessed as decrease in liver weight at 10 mg/kg, ip administered for 4 weeks; type: organism-based; conditions: in vivo, 672 h
Mus musculus [4] = assay: Antidiabetic activity in male db/db mouse model assessed as increase in ADIPOQ protein abundance in white adipose tissue at 2.5 to 10 mg/kg/day, ip administered for 4 weeks by Western blotting analysis; type: functional, organism-based; conditions: dose 2.5-10 mg/kg/day
Mus musculus [5] = assay: Antidiabetic activity in male db/db mouse model assessed as downregulation of LPL gene expression in white adipose tissue at 2.5 to 10 mg/kg/day, ip administered for 4 weeks by RT-qPCR analysis; type: functional, organism-based; conditions: dose 2.5-10 mg/kg/day
Mus musculus [6] = assay: Antidiabetic activity in male db/db mouse model assessed as upregulation of adiponectin gene expression in white adipose tissue at 2.5 to 10 mg/kg/day, ip administered for 4 weeks by RT-qPCR analysis; type: functional, organism-based; conditions: dose 2.5-10 mg/kg/day
Mus musculus [7] = assay: In vivo inhibition of Erk/Cdk5-mediated PPAR-gamma phosphorylation at Ser273 residue in male db/db mouse model assessed as decrease in phosphorylated-MEK expression in white adipose tissue at 2.5 to 10 mg/kg/day, ip administered for 4 weeks by Western blotting analysis; type: functional, organism-based; conditions: dose 2.5-10 mg/kg/day
3T3-L1 [8] = assay: Inhibition of adipogenesis in mouse 3T3-L1 cells assessed as downregulation of C/EBPalpha gene expression at 1 uM measured after 48 hrs by RT-qPCR analysis; type: functional, cell-based
Mus musculus [9] = assay: Antidiabetic activity in male db/db mouse model assessed as improvement in insulin tolerance at 2.5 to 10 mg/kg/day, ip preadministered for 4 weeks followed by glucose administration after 4 to 6 hrs of fasting and measured after 120 mins by intraperitoneal insulin tolerance test; type: functional, organism-based; conditions: dose 2.5-10 mg/kg/day
Mus musculus [10] = assay: Antidiabetic activity in male db/db mouse model assessed as downregulation of CD36 gene expression in liver at 2.5 to 10 mg/kg/day, ip administered for 4 weeks by RT-qPCR analysis; type: functional, organism-based; conditions: dose 2.5-10 mg/kg/day
Mus musculus [11] = assay: In vivo inhibition of Erk/Cdk5-mediated PPAR-gamma phosphorylation at Ser273 residue in male db/db mouse model assessed as decrease in phosphorylated-ERK expression in liver at 2.5 to 10 mg/kg/day, ip administered for 4 weeks by Western blotting analysis; type: functional, organism-based; conditions: dose 2.5-10 mg/kg/day
Mus musculus [12] = assay: In vivo inhibition of Erk/Cdk5-mediated PPAR-gamma phosphorylation at Ser273 residue in male db/db mouse model assessed as decrease in phosphorylated-ERK expression in white adipose tissue at 2.5 to 10 mg/kg/day, ip administered for 4 weeks by Western blotting analysis; type: functional, organism-based; conditions: dose 2.5-10 mg/kg/day
3T3-L1 [13] = assay: Inhibition of adipogenesis in mouse 3T3-L1 cells assessed as downregulation of CD36 gene expression at 1 uM measured after 48 hrs by RT-qPCR analysis; type: functional, cell-based
Mus musculus [14] = assay: Antidiabetic activity in male db/db mouse model assessed as downregulation of PTP1B gene expression in liver at 2.5 to 10 mg/kg/day, ip administered for 4 weeks by RT-qPCR analysis; type: functional, organism-based; conditions: dose 2.5-10 mg/kg/day
[15] = target: T1, Peroxisome proliferator-activated receptor gamma (Homo sapiens); assay: Partial agonist activity at recombinant GST-tagged human PPAR-gamma ligand binding domain (E235 to Y505 residues) extracted from Escherichia coli BL21 (DE3) cells by TR-FRET assay; conditions: filed as partial agonist
Mus musculus [16] = assay: Antidiabetic activity in male db/db mouse model assessed as downregulation of C/EBPalpha gene expression in liver at 2.5 to 10 mg/kg/day, ip administered for 4 weeks by RT-qPCR analysis; type: functional, organism-based; conditions: dose 2.5-10 mg/kg/day
Mus musculus [17] = assay: Antidiabetic activity in male db/db mouse model assessed as reduction in fasting blood glucose level administered intraperitoneally for 4 weeks; type: functional, organism-based; conditions: dose 2.5-10 mg/kg/day, route ip
3T3-L1 [18] = assay: Inhibition of adipogenesis in mouse 3T3-L1 cells assessed as downregulation of LPL gene expression at 1 uM measured after 48 hrs by RT-qPCR analysis; type: functional, cell-based
Mus musculus [19] = assay: Antidiabetic activity in male db/db mouse model assessed as downregulation of aP2 gene expression in white adipose tissue at 2.5 to 10 mg/kg/day, ip administered for 4 weeks by RT-qPCR analysis; type: functional, organism-based; conditions: dose 2.5-10 mg/kg/day
3T3-L1 [20] = assay: Inhibition of adipogenesis in mouse 3T3-L1 cells assessed as downregulation of aP2 gene expression at 1 uM measured after 48 hrs by RT-qPCR analysis; type: functional, cell-based
[21] = target: T1, Peroxisome proliferator-activated receptor gamma (Homo sapiens); assay: Reversible covalent binding affinity to recombinant GST-tagged human PPAR-gamma ligand binding domain (E235 to Y505 residues) extracted from Escherichia coli BL21 (DE3) cells at 500 nM measured upto 240 mins by TR-FRET assay; conditions: filed as partial agonist
[22] = target: T1, Peroxisome proliferator-activated receptor gamma (Homo sapiens); assay: Reversible covalent binding affinity to full-length human PPAR-gamma transfected in […] cells at 5 to 60 nM preincubated for 6 hrs followed by rosiglitazone addition and measured after 24 hrs by Firefly and Renilla-Glo luciferase reporter assay; type: cell-based; conditions: filed as partial agonist, dose 5-60 nM, time 30.0 hrs
Mus musculus [23] = assay: Antidiabetic activity in male db/db mouse model assessed as downregulation of SOCS3 gene expression in liver at 2.5 to 10 mg/kg/day, ip administered for 4 weeks by RT-qPCR analysis; type: functional, organism-based; conditions: dose 2.5-10 mg/kg/day
[24] = Toxicity in male db/db mouse model assessed as increase in white adipocytes size at 2.5 to 10 mg/kg/day, ip administered for 4 weeks by H and E staining based analysis; type: organism-based; conditions: in vivo, 672 h, dose 2.5-10 mg/kg/day
Mus musculus [25] = assay: Antidiabetic activity in male db/db mouse model assessed as downregulation of SOCS3 gene expression in white adipose tissue at 2.5 to 10 mg/kg/day, ip administered for 4 weeks by RT-qPCR analysis; type: functional, organism-based; conditions: dose 2.5-10 mg/kg/day

In the case of Cc1ccc(S(=O)(=O)Oc2ccc(S3(=O)=N[Se]c4cc(OS(=O)(=O)c5ccc(C)cc5)ccc43)cc2)cc1 (stereo not given), the Activity [1] is reported as “Non-toxic”, the Activity [2] is reported as “Active” and the Activity [3] is reported as “Toxic”. For the same compound, the Activity (Mus musculus [4]) was “Active”, the Activity (Mus musculus [5]) was “Active” and the Activity (Mus musculus [6]) was “Active”. The inhibition (Mus musculus [7]) was “Active”, the inhibition (3T3-L1 [8]) was “Active” and the Activity (Mus musculus [9]) was “Active”. The Activity (Mus musculus [10]) was “Active”, the inhibition (Mus musculus [11]) was “Active” and the inhibition (Mus musculus [12]) was “Active”. For the same compound, the inhibition (3T3-L1 [13]) was “Active”, the Activity (Mus musculus [14]) was “Active” and the Activity [15] was “Active”. For the same compound, the Activity (Mus musculus [16]) was “Active”, the Activity (Mus musculus [17]) was “Dose-dependent-effect” and the inhibition (3T3-L1 [18]) was “Active”. For the same compound, the Activity (Mus musculus [19]) was “Active”, the inhibition (3T3-L1 [20]) was “Active” and the Activity [21] was “Active”. The Activity [22] was “Active”, the Activity (Mus musculus [23]) was “Active” and the Activity [24] was “Non-toxic”. For the same compound, the Activity (Mus musculus [25]) was “Active”.

From ChEMBL document CHEMBL6087454, “Identification of Novel Organo-Se BTSA-Based Derivatives as Potent, Reversible, and Selective PPARγ Covalent Modulators for Antidiabetic Drug Discovery” (J Med Chem, 2025)
